{
  "source": "patent EP1464341B1",
  "about": "“Ubiquinone-containing water-soluble formulation for ophthalmic use” (Visufarma S.p.A, priority 2003, dated 2004)",
  "key": {"[1]": {"system": "superoxide anion generated by human PMNs (polymorphonucleates)", "conditions": "human PMNs suitably stimulated; Ferrocytochrome C method"}, "[2]": {"test": "Pharmacokinetic incorporation of the hydrophilic collyrium in rabbit cornea, retina and plasma (CoQ10 concentration)", "assay_type": "in vivo", "conditions": "for RETINA Q10-treated, Average / RETINA Q10-treated: retina of treated eye", "experimental": "Assessment of the pharmacokinetic activity of incorporation of the hydrophilic collyrium in rabbit cornea, retina and plasma.\na) The hydrophilic collyrium was assayed on a first lot of three rabbits by instilling Coenzyme Q10 in the right eye and an equivalent excipient free from Q10 and vitamin E TPQS in the contralateral (basal) eye. At + 15 min from the collyrium instillation, CoQ10 concentration in the treated eye and in the other (basal) eye was analysed. The analysis was performed on the retina, the cornea and the plasma of the two eyes.\nb) .A second lot of six rabbits was subjected to an analogous assay in which the waiting time was prolonged up to 30 min."}, "[3]": {"conditions": "cited from earlier work"}, "[4]": {"conditions": "treated minus basal, 15 min, average of 3 rabbits"}, "[5]": {"conditions": "treated vs basal, 15 min, average of 3 rabbits"}},
  "note": "“And” between values parts separate entries of the source, which are not always exact repeats. Equal entries are not always repeated.",
  "data": [
    {"molecule": "d-Alpha-tocopheryl polyethylene glycol 1000-succinate [vitamin E TPGS]", "values": [
      {"measurement": "scavenging action with regards to the superoxide anion", "setting": "[1]", "value": "scavenging action"}
    ]},
    {"molecule": "COC1=C(OC)C(=O)C(C/C=C(\\C)CC/C=C(\\C)CC/C=C(\\C)CC/C=C(\\C)CC/C=C(\\C)CC/C=C(\\C)CC/C=C(\\C)CC/C=C(\\C)CC/C=C(\\C)CCC=C(C)C)=C(C)C1=O", "note": "[Formulation Q10, Ubiquinone Q10]", "values": [
      {"measurement": "incorporation in the cornea", "setting": "[2]; at both times considered (15 min and 30 min)", "value": "scarce"},
      {"measurement": "CORNEA Q10-treated, Average", "setting": "[2]; cornea of treated eye, 15 min, average of 3 rabbits", "value": 1004, "unit": "pmoles/g"},
      {"measurement": "CORNEA Q10-treated", "setting": "[2]; cornea of treated eye, 15 min, individual rabbits N. 15-17", "value": "887 pmoles/g and 955 pmoles/g and 1170 pmoles/g"},
      {"measurement": "CORNEA Difference, Average", "setting": "[2]; cornea, treated minus basal, 15 min, average of 3 rabbits", "value": 74, "unit": "pmol/g"},
      {"measurement": "CORNEA Difference", "setting": "[2]; cornea, treated minus basal, 15 min, individual rabbits", "value": "-34 pmol/g and 377 pmol/g and -150 pmol/g"},
      {"measurement": "CORNEA %Increase, Average", "setting": "[2]; cornea, treated vs basal, 15 min, average of 3 rabbits", "value": 7, "unit": "%"},
      {"measurement": "CORNEA %Increase", "setting": "[2]; cornea, treated vs basal, 15 min, individual rabbits", "value": "-3% and 65% and -11%"},
      {"measurement": "CORNEA %Increase, Average", "setting": "[2]; cornea, treated vs basal, 30 min, average of 6 rabbits", "value": 4, "unit": "%"},
      {"measurement": "CORNEA %Increase", "setting": "[2]; cornea, treated vs basal, 30 min, individual rabbits", "value": "-17% and 16% (2×) and 24% and -7% and -16%"},
      {"measurement": "PLASMA Q10-treated, Average", "setting": "[2]; 15 min, average of 3 rabbits", "value": 74, "unit": "pmoles/g"},
      {"measurement": "PLASMA Q10-treated", "setting": "[2]; 15 min, individual rabbits N. 15-17", "value": "62 pmoles/g and 83 pmoles/g and 78 pmoles/g"},
      {"measurement": "PLASMA Q10-treated, Average", "setting": "[2]; 30 min, average of 6 rabbits", "value": 83, "unit": "pmoles/g"},
      {"measurement": "PLASMA Q10-treated", "setting": "[2]; 30 min, individual rabbits N. 18-23", "value": "79 pmoles/g and 105 pmoles/g and 106 pmoles/g and 53 pmoles/g and 81 pmoles/g and 73 pmoles/g"},
      {"measurement": "PLASMA Difference, Average", "setting": "[2]; [4]", "value": 10, "unit": "pmol/g"},
      {"measurement": "PLASMA Difference", "setting": "[2]; treated minus basal, 15 min, individual rabbits", "value": "8 pmol/g and 6 pmol/g and 17 pmol/g"},
      {"measurement": "PLASMA Difference, Average", "setting": "[2]; treated minus basal, 30 min, average of 6 rabbits", "value": 13, "unit": "pmol/g"},
      {"measurement": "PLASMA Difference", "setting": "[2]; treated minus basal, 30 min, individual rabbits", "value": "14 pmoles/g (2×) and 7 pmoles/g and 23 pmoles/g and 10 pmoles/g and 8 pmoles/g"},
      {"measurement": "PLASMA %Increase, Average", "setting": "[2]; [5]", "value": 16, "unit": "%"},
      {"measurement": "PLASMA %Increase", "setting": "[2]; treated vs basal, 15 min, individual rabbits", "value": "15% and 8% and 28%"},
      {"measurement": "PLASMA %Increase, Average", "setting": "[2]; treated vs basal, 30 min, average of 6 rabbits", "value": 18, "unit": "%"},
      {"measurement": "PLASMA %Increase", "setting": "[2]; treated vs basal, 30 min, individual rabbits", "value": "21% (2×) and 7% and 28% and 23% and 12%"},
      {"measurement": "RETINA Q10-treated, Average", "setting": "[2]; 15 min, average of 3 rabbits", "value": 754, "unit": "pmoles/g"},
      {"measurement": "RETINA Q10-treated", "setting": "[2]; 15 min after instillation, individual rabbits N. 15-17", "value": "787 pmoles/g and 632 pmoles/g and 843 pmoles/g"},
      {"measurement": "RETINA Q10-treated, Average", "setting": "[2]; second lot (30 min; head prints 15 min), average of 6 rabbits", "value": 1084.3, "unit": "pmoles/g"},
      {"measurement": "RETINA Q10-treated", "setting": "[2]; second lot (waiting time 30 min; head prints 15 min), individual rabbits N. 18-23", "value": "1006 pmoles/g and 1394 pmoles/g and 1037 pmoles/g and 725 pmoles/g and 975 pmoles/g and 1369 pmoles/g"},
      {"measurement": "RETINA Difference", "setting": "[2]; treated minus basal (contralateral) eye, 15 min, individual rabbits", "value": "-82 pmol/g and 14 pmol/g and 83 pmol/g"},
      {"measurement": "RETINA Difference, Average", "setting": "[2]; [4]", "value": 5, "unit": "pmol/g"},
      {"measurement": "RETINA Difference, Average", "setting": "[2]; treated minus basal, second lot (30 min; head prints 15 min), average of 6 rabbits", "value": 138.8, "unit": "pmol/g"},
      {"measurement": "RETINA Difference", "setting": "[2]; treated minus basal, second lot (30 min; head prints 15 min), individual rabbits", "value": "177 pmol/g and 57 pmol/g and 106 pmol/g and 74 pmol/g and 211 pmol/g and 208 pmol/g"},
      {"measurement": "RETINA %Increase, Average", "setting": "[2]; treated vs basal (contralateral eye), second lot (30 min; head prints 15 min), average of 6 rabbits", "value": 15, "unit": "%"},
      {"measurement": "RETINA % Increase", "setting": "[2]; treated vs basal eye, 15 min, individual rabbits", "value": "-9% and 2% and 11%"},
      {"measurement": "RETINA %Increase, Average", "setting": "[2]; [5]", "value": 1, "unit": "%"},
      {"measurement": "RETINA % Increase", "setting": "[2]; treated vs basal, second lot (30 min; head prints 15 min), individual rabbits", "value": "21% and 4% and 11% (2×) and 28% and 18%"},
      {"measurement": "solubility in water", "setting": "[3]", "value": "totally insoluble in water"}
    ]}
  ]
}
